Patent US20240226115A1, “AXL INHIBITOR COMPOUNDS” (ARCUS BIOSCIENCES, INC., priority 2021, published 2024)

What was measured:
Axl [1] = biological target: T1, Axl (Homo sapiens, UniProt P30530); test: HTRF KinEASE-TK biochemical potency, AXL; set-up: purchased Invitrogen; conditions: 5 nM AXL, 700 μM ATP
T1 sequence (P30530 26-894): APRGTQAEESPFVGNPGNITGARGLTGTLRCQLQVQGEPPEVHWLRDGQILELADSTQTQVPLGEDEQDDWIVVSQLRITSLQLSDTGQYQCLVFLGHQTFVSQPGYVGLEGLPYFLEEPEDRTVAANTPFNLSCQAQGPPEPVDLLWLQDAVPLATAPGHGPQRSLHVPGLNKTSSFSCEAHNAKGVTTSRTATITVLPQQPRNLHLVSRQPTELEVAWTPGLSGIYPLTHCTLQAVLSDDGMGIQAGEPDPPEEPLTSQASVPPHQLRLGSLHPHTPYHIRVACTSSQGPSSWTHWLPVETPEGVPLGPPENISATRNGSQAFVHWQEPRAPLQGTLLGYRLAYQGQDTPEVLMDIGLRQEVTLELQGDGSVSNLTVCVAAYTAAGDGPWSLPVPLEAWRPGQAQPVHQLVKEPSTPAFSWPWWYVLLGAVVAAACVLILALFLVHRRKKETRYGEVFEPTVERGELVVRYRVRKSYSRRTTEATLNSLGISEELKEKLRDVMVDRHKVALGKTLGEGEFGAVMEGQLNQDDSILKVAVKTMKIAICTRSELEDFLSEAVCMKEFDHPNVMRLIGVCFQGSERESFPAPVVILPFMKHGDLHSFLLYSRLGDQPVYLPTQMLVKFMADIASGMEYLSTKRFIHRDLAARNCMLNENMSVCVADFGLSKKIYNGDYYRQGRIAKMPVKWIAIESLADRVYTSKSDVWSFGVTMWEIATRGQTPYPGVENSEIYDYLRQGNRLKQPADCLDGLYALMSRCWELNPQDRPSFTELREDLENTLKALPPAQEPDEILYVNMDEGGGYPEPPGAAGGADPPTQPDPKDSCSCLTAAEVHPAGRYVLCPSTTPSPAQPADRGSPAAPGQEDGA
Experimental: Purified recombinant human AXL, TYRO3 and MER proteins were purchased from Invitrogen™. 10 nM AXL, 2 nM TYRO3 or MER were incubated with varying concentrations of compounds in 50 mM HEPES, pH 7.4, 10 mM MgCl2, 0.01% BSA, 1 mM DTT and 2% DMSO in a total volume of 20 μl in a 384-well microplate (Corning™ #3640) at RT for 1 h. The AXL, TYRO3 and MER enzymatic reaction was initiated by transferring 10 μl of enzyme and compound mixture into 10 μl of 1.6 μM TK Substrate-biotin (HTRF® KinEASE-TK kit, Cisbio) and 1400 μM ATP pre-incubated in 50 mM HEPES, pH 7.4, 10 mM MgCl2, 0.01% BSA, 1 mM DTT in a 384-well microplate (Corning™ #3640) at RT, giving the final reaction conditions: 5 nM AXL, 1 nM TYRO3 or MER, 800 nM TK Substrate-biotin and 700 μM ATP in 50 mM HEPES, pH 7.4, 10 mM MgCl2, 0.01% BSA, 1 mM DTT and 1% DMSO with varying concentrations of compounds. Following 2 h incubation at RT, the AXL, TYRO3 and MER enzymatic reaction was stopped by transfer of 10 μl of reaction into 10 μl of detection mix (400 nM Streptavidin-XL665, 200-fold dilution TK Antibody-Cryptate and detection buffer, HTRF® KinEASE-TK kit, Cisbio) in a white 384-well microplate (Perkin Elmer, OptiPlate 384). After 1 h incubation at RT, the plate was put into a plate reader (Evision) to read at 665/620 nm (acceptor/donor) for HTRF. The value of the DMSO blank (MIN inhibition=100% activity) was used as a negative control. The positive control was established by adding 5 μl of enzyme and DMSO mixture into 10 μl of detection mix followed by addition of 5 μl of TK Substrate-biotin and ATP mixture (MAX inhibition=0% activity). To calculate the percent activity, Equation 1 was used. Ratio665/620 is the value at a given compound concentration: […]

Axl [2] = biological target: T1, Axl; test: Axl NanoBRET intracellular kinase assay (Cell Binding); set-up: host or cells: HEK-293; conditions: HEK-293 cells transfected with Axl-NanoLuc fusion vector; displacement of K-5 NanoBRET tracer
Experimental: Axl NanoBRET™ intracellular kinase assay (Promega, N2540) was performed according to manufacturer's recommendation. In brief, HEK-293 cells are transiently transfected with Axl-NanoLuc fusion vector (Promega, NV1071), utilizing Fugene HD transfection reagent (Promega, E2311) a day before experiment following manufacturer's recommendation.
The day of the assay, the cells were collected and resuspended in Opti-MEM media (ThermoFisher, 31985070) at 2e5 cells/mL concentration. Testing compounds were serial diluted and dispensed into a white 384 well polystyrene plate at 200 nL in 100% DMSO. 40 μL of resuspended cells is then added per well for a final condition of 8K cells/well with 0.5% DMSO. After one-hour compound pre-incubation at 37° C. and 5% CO2, cells were further incubated with 0.35 μM K-5 NanoBRET tracer for two-hours at 37° C. and 5% CO2. […] of 3× substrate plus Inhibitor solution was prepared according to kits manual and added to the cells followed by a 30 second pulse centrifugation spin. The plate was then immediately read utilizing an Envision (Perkin Elmer) plate reader. The BRET signal is measured by taking the ratio of the emissions reading at 610 nm and 450 nm. Compound binding is based on the decrease BRET signal caused by the displacement of the K-5 tracer. […] IC50 value of compounds was determined by 4-parameter non-linear regression fitting of percent activity in GraphPad Prism software.

An IC50 (Axl [1]) of less than 100 nM and an IC50 (Axl [2]) of less than 100 nM were found for `O=C1NCCOc2cc(-c3n[nH]c4ncc(-c5ccc6c(c5)CCC(N5CCCC5)CC6)cc34)ccc21` (racemic) [Example 1, 8-{5-[7-(Pyrrolidin-1-yl)-6,7,8,9-tetrahydro-5H-benzo[7]annulen-2-yl]-1H-pyrazolo[3,4-b]pyridin-3-yl}-2,3,4,5-tetrahydro-1,4-benzoxazepin-5-one] in this work.

An IC50 (Axl [1]) of less than 100 nM and an IC50 (Axl [2]) of less than 100 nM were found for `O=C1NCCOc2cc(-c3n[nH]c4ncc(-c5ccc6c(c5)CC[C@H](N5CCCC5)CC6)cc34)ccc21` (single isomer, unassigned) [Example 56] in this work.

An IC50 (Axl [1]) of less than 100 nM and an IC50 (Axl [2]) of less than 100 nM were found for `O=C1NCCOc2cc(-c3n[nH]c4ncc(-c5ccc6c(c5)CC[C@@H](N5CCCC5)CC6)cc34)ccc21` (single isomer, unassigned) [Example 57] in this work.

An IC50 (Axl [1]) of less than 100 nM and an IC50 (Axl [2]) of less than 100 nM were found for `O=C1NCCOc2cc(-c3n[nH]c4ncc(-c5ccc6c(c5)CCC(N5CCCC5)C6)cc34)ccc21` (stereo not shown) [Example 2, 8-{5-[6-(Pyrrolidin-1-yl)-5,6,7,8-tetrahydronaphthalen-2-yl]-1H-pyrazolo[3,4-b]pyridin-3-yl}-2,3,4,5-tetrahydro-1,4-benzoxazepin-5-one] in this work.

An IC50 (Axl [1]) of less than 100 nM and an IC50 (Axl [2]) of 100 to 1000 nM were found for `O=C1NCCOc2cc(-c3n[nH]c4ncc(-c5ccc6c(c5)CC(N5CCCC5)CC6)cc34)ccc21` (stereo not shown) [Example 3, 8-{5-[7-(Pyrrolidin-1-yl)-5,6,7,8-tetrahydronaphthalen-2-yl]-1H-pyrazolo[3,4-b]pyridin-3-yl}-2,3,4,5-tetrahydro-1,4-benzoxazepin-5-one] in this work.

An IC50 (Axl [1]) of less than 100 nM and an IC50 (Axl [2]) of less than 100 nM were found for `O=C1NCCOc2cc(-c3n[nH]c4ncc(-c5ccc6c(c5)CCC(N[C@H]5CCOC5)C6)cc34)ccc21` (stereo partly drawn) [Example 4, 8-[5-(6-{[(3S)—Oxolan-3-yl]amino}-5,6,7,8-tetrahydronaphthalen-2-yl)-1H-pyrazolo[3,4-b]pyridin-3-yl]-2,3,4,5-tetrahydro-1,4-benzoxazepin-5-one] in this work.

An IC50 (Axl [1]) of less than 100 nM and an IC50 (Axl [2]) of less than 100 nM were found for `O=C1NCCOc2cc(-c3n[nH]c4ncc(-c5ccc6c(c5)CCC(N[C@@H]5CCOC5)C6)cc34)ccc21` (stereo partly drawn) [Example 5, 8-[5-(6-{[(3R)—Oxolan-3-yl]amino}-5,6,7,8-tetrahydronaphthalen-2-yl)-1H-pyrazolo[3,4-b]pyridin-3-yl]-2,3,4,5-tetrahydro-1,4-benzoxazepin-5-one] in this work.

An IC50 (Axl [1]) of less than 100 nM and an IC50 (Axl [2]) of less than 100 nM were found for `C[C@@H]1CCCN1C1CCc2ccc(-c3cnc4[nH]nc(-c5cc(F)c6c(c5)OCCNC6=O)c4c3)cc2CC1` (stereo partly drawn) [Example 6, 6-Fluoro-8-(5-{7-[(2R)-2-methylpyrrolidin-1-yl]-6,7,8,9-tetrahydro-5H-benzo[7]annulen-2-yl}-1H-pyrazolo[3,4-b]pyridin-3-yl)-2,3,4,5-tetrahydro-1,4-benzoxazepin-5-one] in this work.

An IC50 (Axl [1]) of less than 100 nM and an IC50 (Axl [2]) of less than 100 nM were found for `O=C1NCCOc2cc(-c3n[nH]c4ncc(-c5ccc6c(c5)CCN(C5CCCC5)CC6)cc34)ccc21` [Example 7, 8-[5-(3-Cyclopentyl-2,3,4,5-tetrahydro-1H-3-benzazepin-7-yl)-1H-pyrazolo[3,4-b]pyridin-3-yl]-2,3,4,5-tetrahydro-1,4-benzoxazepin-5-one] in this work.

An IC50 (Axl [1]) of less than 100 nM and an IC50 (Axl [2]) of less than 100 nM were found for `O=C1NCCOc2cc(-c3n[nH]c4ncc(-c5ccc6c(c5)CCN(C5CCCC5)C6)cc34)ccc21` [Example 9, 8-(5-(2-Cyclopentyl-1,2,3,4-tetrahydroisoquinolin-6-yl)-1H-pyrazolo[3,4-b]pyridin-3-yl)-3,4-dihydrobenzo[f][1,4]oxazepin-5(2H)-one] in this work.

An IC50 (Axl [1]) of less than 100 nM and an IC50 (Axl [2]) of 100 to 1000 nM were found for `O=C1NCCOc2cc(-c3n[nH]c4ncc(-c5ccc6c(c5)CN(C5CCCC5)CC6)cc34)ccc21` [Example 10, 8-(5-(2-Cyclopentyl-1,2,3,4-tetrahydroisoquinolin-7-yl)-1H-pyrazolo[3,4-b]pyridin-3-yl)-3,4-dihydrobenzo[f][1,4]oxazepin-5(2H)-one] in this work.

An IC50 (Axl [1]) of less than 100 nM and an IC50 (Axl [2]) of 100 to 1000 nM were found for `O=C1NCCOc2cc(-c3n[nH]c4ncc(-c5ccc6c(c5)CCN(C5COC5)CC6)cc34)ccc21` [Example 11, 8-(5-(3-(Oxetan-3-yl)-2,3,4,5-tetrahydro-1H-benzo[d]azepin-7-yl)-1H-pyrazolo[3,4-b]pyridin-3-yl)-3,4-dihydrobenzo[f][1,4]oxazepin-5(2H)-one] in this work.

An IC50 (Axl [1]) of less than 100 nM and an IC50 (Axl [2]) of 100 to 1000 nM were found for `O=C1NCCOc2cc(-c3n[nH]c4ncc(-c5ccc6c(c5)CCN(C5COC5)C6)cc34)ccc21` [Example 12, 8-(5-(2-(Oxetan-3-yl)-1,2,3,4-tetrahydroisoquinolin-6-yl)-1H-pyrazolo[3,4-b]pyridin-3-yl)-3,4-dihydrobenzo[f][1,4]oxazepin-5(2H)-one] in this work.

An IC50 (Axl [1]) of less than 100 nM and an IC50 (Axl [2]) of 100 to 1000 nM were found for `COCCN1CCc2cc(-c3cnc4[nH]nc(-c5ccc6c(c5)OCCNC6=O)c4c3)ccc2C1` [Example 13, 8-(5-(2-(2-Methoxyethyl)-1,2,3,4-tetrahydroisoquinolin-6-yl)-1H-pyrazolo[3,4-b]pyridin-3-yl)-3,4-dihydrobenzo[f][1,4]oxazepin-5(2H)-one] in this work.

An IC50 (Axl [1]) of less than 100 nM and an IC50 (Axl [2]) of less than 100 nM were found for `COCCN1CCc2ccc(-c3cnc4[nH]nc(-c5ccc6c(c5)OCCNC6=O)c4c3)cc2CC1` [Example 15, 8-(5-(3-(2-Methoxyethyl)-2,3,4,5-tetrahydro-1H-benzo[d]azepin-7-yl)-1H-pyrazolo[3,4-b]pyridin-3-yl)-3,4-dihydrobenzo[f][1,4]oxazepin-5(2H)-one] in this work.

An IC50 (Axl [1]) of less than 100 nM and an IC50 (Axl [2]) of 100 to 1000 nM were found for `CC(C)C(=O)N1CCc2ccc(-c3cnc4[nH]nc(-c5ccc6c(c5)OCCNC6=O)c4c3)cc2CC1` [Example 16, 8-{5-[3-(2-Methylpropanoyl)-2,3,4,5-tetrahydro-1H-3-benzazepin-7-yl]-1H-pyrazolo[3,4-b]pyridin-3-yl}-2,3,4,5-tetrahydro-1,4-benzoxazepin-5-one] in this work.

An IC50 (Axl [1]) of less than 100 nM and an IC50 (Axl [2]) of 100 to 1000 nM were found for `O=C1NCCOc2cc(-c3n[nH]c4ncc(-c5ccc6c(c5)CCN(C(=O)C5CC5)CC6)cc34)ccc21` [Example 17, 8-[5-(3-Cyclopropanecarbonyl-2,3,4,5-tetrahydro-1H-3-benzazepin-7-yl)-1H-pyrazolo[3,4-b]pyridin-3-yl]-2,3,4,5-tetrahydro-1,4-benzoxazepin-5-one] in this work.
